Experimental data as given in the supplement of paper PMC6045584.
± gives the standard deviation of the averaged measurements.

Assays:
CABOZANTINIB = compound: COc1cc2nccc(Oc3ccc(NC(=O)C4(C(=O)Nc5ccc(F)cc5)CC4)cc3)c2cc1OC [CABOZANTINIB]; experiment: surviving fraction relative to DMSO-only wells; higher = less growth inhibition; details: exposure time: 5 days
Procedure, shortened: (§1)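 Surviving fraction is CellTiter-Glo luminescence divided by the median of wells given DMSO only. For this, log-phase tumour cell lines went into 384-well plates at 250–500 cells per well and, 24 hours later, into five days of continuous inhibitor exposure at 0.5, 1, 5, 10, 50, 100, 500 and 1000 nM. Lines were screened three times and retained only if replicate Pearson r >0.7 and median Z' >0.3.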

LENVATINIB = compound: COc1cc2nccc(Oc3ccc(NC(=O)NC4CC4)c(Cl)c3)c2cc1C(N)=O [LENVATINIB]; experiment: as above; details: exposure time: 5 days
Procedure, shortened: as §1

SG43 HEADNECK gave a surviving fraction (CABOZANTINIB; 0.5 nM) of 0.887 ± 0.051, a surviving fraction (CABOZANTINIB; 1 nM) of 0.863 ± 0.15 and a surviving fraction (CABOZANTINIB; 5 nM) of 0.883 ± 0.019. The surviving fraction (CABOZANTINIB; 10 nM) was 0.788 ± 0.11, the surviving fraction (CABOZANTINIB; 50 nM) was 0.759 ± 0.18 and the surviving fraction (CABOZANTINIB; 100 nM) was 0.737 ± 0.2. The surviving fraction (CABOZANTINIB; 500 nM) was 0.757 ± 0.056, the surviving fraction (CABOZANTINIB; 1000 nM) was 0.708 ± 0.072 and the surviving fraction (LENVATINIB; 0.5 nM) was 0.959 ± 0.18. For the same test system, the surviving fraction (LENVATINIB; 1 nM) was 1.01 ± 0.3, the surviving fraction (LENVATINIB; 5 nM) was 0.772 ± 0.11 and the surviving fraction (LENVATINIB; 10 nM) was 0.842 ± 0.098. It also gave a surviving fraction (LENVATINIB; 50 nM) of 0.84 ± 0.14, a surviving fraction (LENVATINIB; 100 nM) of 0.93 ± 0.24 and a surviving fraction (LENVATINIB; 500 nM) of 1.13 ± 0.17. The surviving fraction (LENVATINIB; 1000 nM) was 1.09 ± 0.11.

In the case of MDAMB134 BREAST, the surviving fraction (CABOZANTINIB; 0.5 nM) is reported as 0.902 ± 0.12, the surviving fraction (CABOZANTINIB; 1 nM) is reported as 0.888 ± 0.047 and the surviving fraction (CABOZANTINIB; 5 nM) is reported as 0.896 ± 0.13. It also gave a surviving fraction (CABOZANTINIB; 10 nM) of 1.04 ± 0.14, a surviving fraction (CABOZANTINIB; 50 nM) of 0.907 ± 0.23 and a surviving fraction (CABOZANTINIB; 100 nM) of 0.943 ± 0.0042. For the same test system, the surviving fraction (CABOZANTINIB; 500 nM) was 0.955 ± 0.086, the surviving fraction (CABOZANTINIB; 1000 nM) was 0.873 ± 0.086 and the surviving fraction (LENVATINIB; 0.5 nM) was 1.12 ± 0.079. It also gave a surviving fraction (LENVATINIB; 1 nM) of 1.08 ± 0.044, a surviving fraction (LENVATINIB; 5 nM) of 1.16 ± 0.069 and a surviving fraction (LENVATINIB; 10 nM) of 1.09 ± 0.011. The surviving fraction (LENVATINIB; 50 nM) was 1.29 ± 0.13, the surviving fraction (LENVATINIB; 100 nM) was 1.32 ± 0.14 and the surviving fraction (LENVATINIB; 500 nM) was 0.972 ± 0.15. The surviving fraction (LENVATINIB; 1000 nM) was 1.05 ± 0.057.

In the case of SG27 HEADNECK, the surviving fraction (CABOZANTINIB; 0.5 nM) is reported as 1.02 ± 0.036, the surviving fraction (CABOZANTINIB; 1 nM) is reported as 1.06 ± 0.021 and the surviving fraction (CABOZANTINIB; 5 nM) is reported as 0.971 ± 0.054. The surviving fraction (CABOZANTINIB; 10 nM) was 0.996 ± 0.1, the surviving fraction (CABOZANTINIB; 50 nM) was 1.14 ± 0.079 and the surviving fraction (CABOZANTINIB; 100 nM) was 1.03 ± 0.13. It also gave a surviving fraction (CABOZANTINIB; 500 nM) of 0.975 ± 0.14, a surviving fraction (CABOZANTINIB; 1000 nM) of 0.9483 ± 0.007 and a surviving fraction (LENVATINIB; 0.5 nM) of 1.15 ± 0.18. It also gave a surviving fraction (LENVATINIB; 1 nM) of 1.11 ± 0.028, a surviving fraction (LENVATINIB; 5 nM) of 1.12 ± 0.093 and a surviving fraction (LENVATINIB; 10 nM) of 1.1 ± 0.052. It also gave a surviving fraction (LENVATINIB; 50 nM) of 1.04 ± 0.21, a surviving fraction (LENVATINIB; 100 nM) of 0.985 ± 0.13 and a surviving fraction (LENVATINIB; 500 nM) of 0.928 ± 0.025. It also gave a surviving fraction (LENVATINIB; 1000 nM) of 0.957 ± 0.055.

With 143B BONE the surviving fraction (CABOZANTINIB; 0.5 nM) was 1.07 ± 0.08, the surviving fraction (CABOZANTINIB; 1 nM) was 1.03 ± 0.023 and the surviving fraction (CABOZANTINIB; 5 nM) was 1.02 ± 0.013. For the same test system, the surviving fraction (CABOZANTINIB; 10 nM) was 1.05 ± 0.02, the surviving fraction (CABOZANTINIB; 50 nM) was 1.01 ± 0.038 and the surviving fraction (CABOZANTINIB; 100 nM) was 1.09 ± 0.059. It also gave a surviving fraction (CABOZANTINIB; 500 nM) of 1.048 ± 0.0092, a surviving fraction (CABOZANTINIB; 1000 nM) of 1.06 ± 0.031 and a surviving fraction (LENVATINIB; 0.5 nM) of 0.992 ± 0.0085. It also gave a surviving fraction (LENVATINIB; 1 nM) of 1.018 ± 0.0064, a surviving fraction (LENVATINIB; 5 nM) of 1.04 ± 0.022 and a surviving fraction (LENVATINIB; 10 nM) of 1.01 ± 0.027. It also gave a surviving fraction (LENVATINIB; 50 nM) of 1.04 ± 0.012, a surviving fraction (LENVATINIB; 100 nM) of 1.05 ± 0.015 and a surviving fraction (LENVATINIB; 500 nM) of 1.05 ± 0.022. The surviving fraction (LENVATINIB; 1000 nM) was 1.05 ± 0.013.

With NOS1 BONE the surviving fraction (CABOZANTINIB; 0.5 nM) was 1.09 ± 0.062, the surviving fraction (CABOZANTINIB; 1 nM) was 1.08 ± 0.012 and the surviving fraction (CABOZANTINIB; 5 nM) was 1.12 ± 0.078. For the same test system, the surviving fraction (CABOZANTINIB; 10 nM) was 1.16 ± 0.073, the surviving fraction (CABOZANTINIB; 50 nM) was 0.944 ± 0.029 and the surviving fraction (CABOZANTINIB; 100 nM) was 0.841 ± 0.04. It also gave a surviving fraction (CABOZANTINIB; 500 nM) of 0.68 ± 0.077, a surviving fraction (CABOZANTINIB; 1000 nM) of 0.579 ± 0.041 and a surviving fraction (LENVATINIB; 0.5 nM) of 1.09 ± 0.012. The surviving fraction (LENVATINIB; 1 nM) was 1.01 ± 0.079, the surviving fraction (LENVATINIB; 5 nM) was 1.24 ± 0.34 and the surviving fraction (LENVATINIB; 10 nM) was 0.922 ± 0.074. It also gave a surviving fraction (LENVATINIB; 50 nM) of 0.826 ± 0.034, a surviving fraction (LENVATINIB; 100 nM) of 0.703 ± 0.021 and a surviving fraction (LENVATINIB; 500 nM) of 0.624 ± 0.087. It also gave a surviving fraction (LENVATINIB; 1000 nM) of 0.529 ± 0.011.
